Consider 12 molecules from paper PMC9610647, “Acetylcholinesterase Inhibitory Activities of Essential Oils from Vietnamese Traditional Medicinal Plants” (Molecules, 2022).

Each structure is given as a SMILES string.

Broadly, the IC50 is the concentration at which inhibition is half-maximal.

The test system of experiment [1] is AChE from Electrophorus electricus (electric eel). To be noted: cited from earlier work.
The test system of experiment [2] is AChE of bovine erythrocytes. The following applies: cited from earlier work.
The subject of experiment [3] is AChE from human erythrocytes. To be noted: cited from earlier work.
The target in experiment [4] is T1, electric eel AChE (Electrophorus electricus, UniProt O42275).
T1 construct: purchased Sigma-Aldrich
T1 sequence (O42275 24-633): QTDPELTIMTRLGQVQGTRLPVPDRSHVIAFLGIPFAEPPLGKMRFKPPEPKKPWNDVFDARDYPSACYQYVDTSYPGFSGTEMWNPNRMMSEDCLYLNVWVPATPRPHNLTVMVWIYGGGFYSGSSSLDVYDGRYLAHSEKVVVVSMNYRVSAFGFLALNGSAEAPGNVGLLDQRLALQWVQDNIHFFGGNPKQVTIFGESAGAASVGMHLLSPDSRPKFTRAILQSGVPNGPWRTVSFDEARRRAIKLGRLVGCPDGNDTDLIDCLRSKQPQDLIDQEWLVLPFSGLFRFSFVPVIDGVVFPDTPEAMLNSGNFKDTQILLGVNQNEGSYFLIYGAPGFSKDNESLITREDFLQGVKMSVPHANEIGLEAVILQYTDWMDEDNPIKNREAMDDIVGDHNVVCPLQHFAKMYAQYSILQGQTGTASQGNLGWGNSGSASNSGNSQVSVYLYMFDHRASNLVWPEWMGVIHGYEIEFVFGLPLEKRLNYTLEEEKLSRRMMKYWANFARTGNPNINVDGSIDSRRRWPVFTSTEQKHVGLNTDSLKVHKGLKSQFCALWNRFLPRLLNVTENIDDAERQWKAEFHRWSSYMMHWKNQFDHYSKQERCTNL
As to the kind of experiment: Acetylcholinesterase (AChE) inhibition assay, Ellman method. It is filed as biochemical. To be noted: for inhibition at 4 µg/mL: read-out: Acetylcholinesterase inhibitory activity at 4 µg/mL; for inhibition at 20 µg/mL: read-out: Acetylcholinesterase inhibitory activity at 20 µg/mL; for inhibition at 100 µg/mL: read-out: Acetylcholinesterase inhibitory activity at 100 µg/mL; for inhibition at 500 µg/mL: read-out: Acetylcholinesterase inhibitory activity at 500 µg/mL. The protocol: Acetylcholinesterase (AChE) inhibitory activity of essential oil was determined according to the method described by Ellman and our previous study. The stock solution was obtained by dissolving the essential oil in DMSO (Merck), which was then diluted with H2O (deionized distilled water) to obtain different experimental concentrations. Each solution mixture consisted of 140 μL of phosphate buffer solution (pH: 8), 20 μL of essential oil at concentrations of 500, 100, 20, and 4 μg/mL, and 20 μL of the enzyme AChE (0.25 IU/mL, Sigma-Aldrich, St. Louis, MO, USA). The reaction mixtures were transferred to the test wells of a 96-well microtiter plate and incubated at 25 °C for 15 min. Then, solutions of 10 μL dithiobisnitrobenzoic acid (DTNB, 2.5 mM, Sigma-Aldrich) and 10 μL acetylthiocholine iodide (ACTI, 2.5 mM, Sigma-Aldrich) were added to each of the test wells and incubation continued for 10 min at 25 °C. […] Each test was carried out in triplicate.
(In general: In Ellman's method for cholinesterases, released thiocholine reacts with DTNB.)

Experiment [5] has as its system AChE. The following applies: cited from earlier work.
Where [6] appears, read: IC50 (μM), IC50 ± standard deviation.
Setting [7] is: IC50, IC50 ± standard deviation.

Consider `CC12CCC(CC1)C(C)(C)O2` [1,8-Cineole, reference compound], for which the IC50 in experiment [1] is 6 µM; in experiment [2] it was 390 ± 60 µM.

As for `C=C1CCC=C(C)CCC2C1CC2(C)C` (stereo not drawn) [(E)-β-Caryophyllene], the IC50 in experiment [3] was 147 ± 15 µM. For the same molecule, the “inhibition of AChE” value in experiment [1] (concentration 0.06 mM) is listed as 32%. In addition, in experiment [4] (setting [6]), the IC50 stood at 436 ± 29.9 µM. Further, in experiment [4] (setting [7]), 436 µM corresponded to half-maximal inhibition (IC50). Further, in experiment [4], the inhibition at 4 µg/mL was found to be 6.09%, the inhibition at 20 µg/mL is 26.3%, the inhibition at 100 µg/mL stood at 52.9% and the inhibition at 500 µg/mL was 79%.

For the molecule `C=C1CC[C@H]2O[C@]2(C)CC[C@@H]2[C@@H]1CC2(C)C` [Caryophyllene Oxide], the AChE inhibition in experiment [1] (200 µg/mL) is reported as 41.46 ± 2.66%. In experiment [2] (250 µg/mL), the AChE inhibition was 35 ± 4.7%. The same molecule gave an IC50 in experiment [4] (setting [6]) of 1450 ± 61 µM. This molecule also gave an IC50 in experiment [4] (setting [7]) of 1450 µM. For the same molecule, in experiment [4], the inhibition at 4 µg/mL is -2.11%, the inhibition at 20 µg/mL was found to be 0.49%, the inhibition at 100 µg/mL was found to be 16.9% and the inhibition at 500 µg/mL was determined as 74%.

In experiment [4] (setting [6]), `C=C(C)C1CC=C(C)CC1` (stereo not drawn) [Limonene] gave an IC50 of 390 ± 30 µM. Further, in experiment [4] (setting [7]), the IC50 is 390 µM. In experiment [4], the inhibition at 4 µg/mL is 18.2%, the inhibition at 20 µg/mL was 27%, the inhibition at 100 µg/mL amounted to 67.7% and the inhibition at 500 µg/mL stood at 90.8%.

Regarding `CC1(C)C2CC=C(C=O)C1C2` (stereo not drawn) [Myrtenal], in experiment [5], the IC50 was 170 µM.

With `C=C1CCC2(C(C)C)CC12` (stereo not drawn) [Sabinene], the IC50 in experiment [5] was 1300 ± 21 µM.

On to `C=C(C)C1CC=C(C)C(O)C1` (stereo not drawn) [trans-Carveol], for which the IC50 in experiment [4] (setting [6]) worked out at 676 µM. In addition, in experiment [4] (setting [7]), the IC50 is 676 µM. In experiment [4], the inhibition at 4 µg/mL was 1.19%, the inhibition at 20 µg/mL stood at 16.8%, the inhibition at 100 µg/mL was determined as 55.3% and the inhibition at 500 µg/mL was 76.9%.

Turning to `CC1=CCCC(C)=CCC(C)(C)C=CC1` [α-Humulene], half-maximal inhibition in experiment [4] (setting [6]) (IC50) required 785 ± 66 µM. Moreover, in experiment [4] (setting [7]), it took 785 µM to reach half-maximal inhibition (IC50). For the same molecule, in experiment [4], the inhibition at 4 µg/mL amounted to 19.4%, the inhibition at 20 µg/mL came out at 25.1%, the inhibition at 100 µg/mL stood at 44.3% and the inhibition at 500 µg/mL was 72.8%.

In the case of `CC1=CCC2CC1C2(C)C` (stereo not drawn) [α-Pinene, reference compound], the IC50 in experiment [2] is 660 ± 40 µM.

Turning to `CC1=CC=C(C(C)C)CC1` [α-terpinene], in experiment [5], the IC50 was 1000 µM.

As to `CC1=CC[C@@H](C(C)(C)O)CC1` [α-terpineol], the IC50 in experiment [5] was 8400 ± 400 µM.

Take `C=C1CCC2CC1C2(C)C` (stereo not drawn) [β-Pinene]: the IC50 in experiment [2] was roughly 1500 µM. In experiment [4] (setting [6]), this molecule had an IC50 of 525 ± 42.4 µM. In addition, half-maximal inhibition in experiment [4] (setting [7]) (IC50) required 524 µM. In experiment [4], the inhibition at 4 µg/mL came to 20.9%, the inhibition at 20 µg/mL turned out to be 28.9%, the inhibition at 100 µg/mL came out at 58.9% and the inhibition at 500 µg/mL amounted to 86.5%.
